Assay results as given in the supplement of paper PMC9663587.

How the values were obtained:
[1] = compound: T1, CC(=O)c1c(C)c2cnc(Nc3ccc(N4CCN(CCOCCOCCOCCNC(=O)COc5cccc6c5C(=O)N(C5CCC(=O)NC5=O)C6=O)CC4)cn3)nc2n(C2CCCC2)c1=O [BSJ-03-123]
[2] = compound: Cc1nc(-c2cn3c(n2)-c2ccc(-c4cnn(C(C)(C)C(N)=O)c4)cc2OCC3)n(C(C)C)n1 [Taselisib/GDC0032]
[3] = compound: Cc1cc(Nc2ncc(Cl)c(Nc3ccccc3S(=O)(=O)C(C)C)n2)c(OC(C)C)cc1C1CCNCC1 [Ceritinib/LDK378]
[4] = compound: T2, CCOc1cc2ncc(C#N)c(Nc3ccc(OCc4ccccn4)c(Cl)c3)c2cc1NC(=O)/C=C/CN(C)C [Neratinib/HKI272]
[5] = compound: COc1cccc2c1C(=O)c1c(O)c3c(c(O)c1C2=O)C[C@@](O)(C(=O)CO)C[C@@H]3O[C@H]1C[C@H](N)[C@H](O)[C@H](C)O1 [Doxorubicin]
[6] = compound: T3, CN(C)C/C=C/C(=O)Nc1ccc(C(=O)N2CCC[C@@H](Nc3ncc(Cl)c(-c4c[nH]c5ccccc45)n3)C2)cc1 [THZ531]
[7] = compound: CN(C)C/C=C/C(=O)Nc1ccc(O[C@@H]2CCC[C@@H](Nc3ncc(Cl)c(-c4c[nH]c5ccccc45)n3)C2)cc1 [BSJ-01-175]
[8] = compound: CC(=O)Nc1cccc(-n2c(=O)n(C3CC3)c(=O)c3c(Nc4ccc(I)cc4F)n(C)c(=O)c(C)c32)c1
[9] = compound: Cc1nc(Nc2ncc(C(=O)Nc3c(C)cccc3Cl)s2)cc(N2CCN(CCO)CC2)n1 [Dasatinib]
[10] = compound: CO[C@@H](C)Cn1c(=O)n(C)c2cnc3ccc(-c4cncc(C(C)(C)O)c4)cc3c21
[11] = compound: CNCc1ccc(-c2[nH]c3cc(F)cc4c3c2CCNC4=O)cc1 [Rucaparib]
[12] = compound: CC(C)n1nc(-c2ccc3oc(N)nc3c2)c2c(N)ncnc21 [INK128/MLN0128]
[13] = compound: CNC(=O)c1cccc(-c2ccc3c(N4CCOC[C@@H]4C)nc(N4CCOC[C@@H]4C)nc3n2)c1 [AZD2014]
[14] = compound: O=C(CCCCCCC(=O)Nc1ccccc1)NO [Vorinostat]
[15] = compound: CC[C@@H]1C(=O)N(C)c2cnc(Nc3ccc(C(=O)N[C@H]4CC[C@H](N5CCN(CC6CC6)CC5)CC4)cc3OC)nc2N1C(C)C [Volasertib/BI6727]
[16] = compound: CC(=O)c1c(C)c2cnc(Nc3ccc(N4CCNCC4)cn3)nc2n(C2CCCC2)c1=O
[17] = compound: T1, BSJ-03-123; assay: increase in dead-cell fraction, 72 h; higher = more death;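 note: breast cancer cell lines in 384-well plates, stained with Hoechst plus LIVE/DEAD far red dye and imaged, cells above an LDR intensity threshold counted dead, Hoechst-negative corpses included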
[18] = compound: CCc1cnn2c(NCc3ccc[n+]([O-])c3)cc(N3CCCC[C@H]3CCO)nc12; assay: as above
[19] = compound: CN(C)C/C=C/C(=O)Nc1ccc(C(=O)Nc2cccc(Nc3ncc(Cl)c(-c4c[nH]c5ccccc45)n3)c2)cc1 [THZ1]; assay: as above
[20] = compound: T2, Neratinib/HKI272; assay: as above
[21] = compound: T3, THZ531; assay: as above
[22] = compound: C=CC(=O)Nc1ccc(C(=O)Nc2[nH]nc3c2CN(C(=O)N[C@H](CN(C)C)c2ccccc2)C3(C)C)cc1 [YKL-5-124]; assay: as above
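Throughout, for GR50, 72 h: breast cancer and non-malignant breast epithelial cell lines, Deep Dye Drop or Dye Drop imaging, nine half-log doses, GR normalized to time-zero plates and DMSO-only controls.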

MDAMB175VII
GR50, 72 h [1]: 0.301 µM
GR50, 72 h [2]: 0.00272 µM
GR50, 72 h [3]: 2.56 µM
GR50, 72 h [4]: 0.00127 µM
GR50, 72 h [5]: 0.00311 µM
GR50, 72 h [6]: 0.0409 µM
GR50, 72 h [7]: 0.00586 µM
GR50, 72 h [8]: 0.00195 µM
GR50, 72 h [9]: 0.0162 µM
GR50, 72 h [10]: < 0.001 µM
GR50, 72 h [11]: > 10 µM
GR50, 72 h [12]: 0.00349 µM
GR50, 72 h [13]: < 0.001 µM
GR50, 72 h [14]: 0.546 µM
GR50, 72 h [15]: 0.0114 µM
GR50, 72 h [16]: 0.00212 µM
increase in dead-cell fraction ([17]; 0.001 µM): 0.0049
increase in dead-cell fraction ([17]; 0.003162 µM): 0.0003
increase in dead-cell fraction ([17]; 0.01 µM): 0.0001
increase in dead-cell fraction ([17]; 0.03162 µM): 0.0082
increase in dead-cell fraction ([17]; 0.1 µM): 0.0009
increase in dead-cell fraction ([17]; 0.3162 µM): 0.0035
increase in dead-cell fraction ([17]; 1 µM): 0.0093
increase in dead-cell fraction ([17]; 3.162 µM): 0.009
increase in dead-cell fraction ([17]; 10 µM): 0.0139
increase in dead-cell fraction ([18]; 0.0001 µM): -0.004
increase in dead-cell fraction ([18]; 0.0003162 µM): -0.0015
increase in dead-cell fraction ([18]; 0.001 µM): -0.0018
increase in dead-cell fraction ([18]; 0.003162 µM): -0.0039
increase in dead-cell fraction ([18]; 0.01 µM): 0.001
increase in dead-cell fraction ([18]; 0.03162 µM): 0.116
increase in dead-cell fraction ([18]; 0.1 µM): 0.0618
increase in dead-cell fraction ([18]; 0.3162 µM): 0.0494
increase in dead-cell fraction ([18]; 1 µM): 0.0562
increase in dead-cell fraction ([19]; 0.0001 µM): 0.0012
increase in dead-cell fraction ([19]; 0.0003162 µM): -0.0011
increase in dead-cell fraction ([19]; 0.001 µM): -0.0032
increase in dead-cell fraction ([19]; 0.003162 µM): -0.0005
increase in dead-cell fraction ([19]; 0.01 µM): 0.0034
increase in dead-cell fraction ([19]; 0.03162 µM): 0.0153
increase in dead-cell fraction ([19]; 0.1 µM): 0.0349
increase in dead-cell fraction ([19]; 0.3162 µM): 0.0573
increase in dead-cell fraction ([19]; 1 µM): 0.0912
increase in dead-cell fraction ([20]; 0.0003162 µM): -0.0063
increase in dead-cell fraction ([20]; 0.001 µM): -0.0069
increase in dead-cell fraction ([20]; 0.003162 µM): 0.0132
increase in dead-cell fraction ([20]; 0.01 µM): 0.0578
increase in dead-cell fraction ([20]; 0.03162 µM): 0.214
increase in dead-cell fraction ([20]; 0.1 µM): 0.276
increase in dead-cell fraction ([20]; 0.3162 µM): 0.406
increase in dead-cell fraction ([20]; 1 µM): 0.44
increase in dead-cell fraction ([20]; 3.162 µM): 0.49
increase in dead-cell fraction ([21]; 0.0001 µM): 0.0053
increase in dead-cell fraction ([21]; 0.0003162 µM): 0.0019
increase in dead-cell fraction ([21]; 0.001 µM): 0.0075
increase in dead-cell fraction ([21]; 0.003162 µM): 0.0041
increase in dead-cell fraction ([21]; 0.01 µM): 0.0043
increase in dead-cell fraction ([21]; 0.03162 µM): 0.0033
increase in dead-cell fraction ([21]; 0.1 µM): 0.105
increase in dead-cell fraction ([21]; 0.3162 µM): 0.231
increase in dead-cell fraction ([21]; 1 µM): 0.0668
increase in dead-cell fraction ([22]; 0.001 µM): 0.0167
increase in dead-cell fraction ([22]; 0.003162 µM): 0.0032
increase in dead-cell fraction ([22]; 0.01 µM): 0.0173
increase in dead-cell fraction ([22]; 0.03162 µM): 0.0139
increase in dead-cell fraction ([22]; 0.1 µM): 0.0095
increase in dead-cell fraction ([22]; 0.3162 µM): 0.0149
increase in dead-cell fraction ([22]; 1 µM): 0.0069
increase in dead-cell fraction ([22]; 3.162 µM): 0.0133
increase in dead-cell fraction ([22]; 10 µM): 0.285

SUM190PT
GR50, 72 h [1]: 0.0593 µM
GR50, 72 h [2]: 0.962 µM
GR50, 72 h [3]: 0.528 µM
GR50, 72 h [4]: 1.88 µM
GR50, 72 h [5]: 0.025 µM
GR50, 72 h [6]: 0.0528 µM
GR50, 72 h [7]: 0.00573 µM
GR50, 72 h [8]: > 1 µM
GR50, 72 h [9]: 0.212 µM
GR50, 72 h [10]: < 0.001 µM
GR50, 72 h [11]: > 10 µM
GR50, 72 h [12]: 0.0134 µM
GR50, 72 h [13]: 0.00932 µM
GR50, 72 h [14]: 0.402 µM
GR50, 72 h [15]: 0.0086 µM
GR50, 72 h [16]: 0.0436 µM
increase in dead-cell fraction ([17]; 0.001 µM): 0.0016
increase in dead-cell fraction ([17]; 0.003162 µM): -0.0004
increase in dead-cell fraction ([17]; 0.01 µM): 0.0082
increase in dead-cell fraction ([17]; 0.03162 µM): 0.018
increase in dead-cell fraction ([17]; 0.1 µM): 0.0114
increase in dead-cell fraction ([17]; 0.3162 µM): 0.0142
increase in dead-cell fraction ([17]; 1 µM): 0.0139
increase in dead-cell fraction ([17]; 3.162 µM): 0.0169
increase in dead-cell fraction ([17]; 10 µM): 0.243
increase in dead-cell fraction ([18]; 0.0001 µM): 0.0034
increase in dead-cell fraction ([18]; 0.0003162 µM): 0.0047
increase in dead-cell fraction ([18]; 0.001 µM): -0.0024
increase in dead-cell fraction ([18]; 0.003162 µM): -0.0088
increase in dead-cell fraction ([18]; 0.01 µM): -0.0098
increase in dead-cell fraction ([18]; 0.03162 µM): 0.201
increase in dead-cell fraction ([18]; 0.1 µM): 0.449
increase in dead-cell fraction ([18]; 0.3162 µM): 0.477
increase in dead-cell fraction ([18]; 1 µM): 0.49
increase in dead-cell fraction ([19]; 0.0001 µM): -0.0051
increase in dead-cell fraction ([19]; 0.0003162 µM): -0.0051
increase in dead-cell fraction ([19]; 0.001 µM): -0.003
increase in dead-cell fraction ([19]; 0.003162 µM): 0.0428
increase in dead-cell fraction ([19]; 0.01 µM): 0.193
increase in dead-cell fraction ([19]; 0.03162 µM): 0.338
increase in dead-cell fraction ([19]; 0.1 µM): 0.269
increase in dead-cell fraction ([19]; 0.3162 µM): 0.106
increase in dead-cell fraction ([19]; 1 µM): 0.13
increase in dead-cell fraction ([20]; 0.0003162 µM): -0.0031
increase in dead-cell fraction ([20]; 0.001 µM): -0.0024
increase in dead-cell fraction ([20]; 0.003162 µM): -0.0097
increase in dead-cell fraction ([20]; 0.01 µM): 0.0037
increase in dead-cell fraction ([20]; 0.03162 µM): -0.0082
increase in dead-cell fraction ([20]; 0.1 µM): 0.0008
increase in dead-cell fraction ([20]; 0.3162 µM): 0.0036
increase in dead-cell fraction ([20]; 1 µM): 0.0415
increase in dead-cell fraction ([20]; 3.162 µM): 0.0395
increase in dead-cell fraction ([21]; 0.0001 µM): -0.0012
increase in dead-cell fraction ([21]; 0.0003162 µM): 0.0006
increase in dead-cell fraction ([21]; 0.001 µM): 0.0192
increase in dead-cell fraction ([21]; 0.003162 µM): 0.0068
increase in dead-cell fraction ([21]; 0.01 µM): -0.0033
increase in dead-cell fraction ([21]; 0.03162 µM): 0.0143
increase in dead-cell fraction ([21]; 0.1 µM): 0.0893
increase in dead-cell fraction ([21]; 0.3162 µM): 0.636
increase in dead-cell fraction ([21]; 1 µM): 0.44
increase in dead-cell fraction ([22]; 0.001 µM): 0.0072
increase in dead-cell fraction ([22]; 0.003162 µM): 0.0099
increase in dead-cell fraction ([22]; 0.01 µM): 0.0098
increase in dead-cell fraction ([22]; 0.03162 µM): 0.0132
increase in dead-cell fraction ([22]; 0.1 µM): 0.005
increase in dead-cell fraction ([22]; 0.3162 µM): 0.0169
increase in dead-cell fraction ([22]; 1 µM): 0.0033
increase in dead-cell fraction ([22]; 3.162 µM): 0.0008
increase in dead-cell fraction ([22]; 10 µM): 0.244
